Source: ChEMBL document CHEMBL1151757, “Synthesis, radiosynthesis, and biological evaluation of fluorine-18-labeled 2beta-carbo(fluoroalkoxy)-3beta-(3'-((Z)-2-haloethenyl)phenyl)nortropanes: candidate radioligands for in vivo imaging of the serotonin transporter with positron emission tomography” (J Med Chem, 2008)

Tests used:
[1] = Ratio of drug uptake in pons to cerebellum in anesthetized cynomolgus monkey after 195 mins postinjection; format: ADME, organism-based, Macaca fascicularis; conditions: in vivo, 3.25 h
[2] = Ratio of drug uptake in medulla to cerebellum in anesthetized cynomolgus monkey after 12.5 mins postinjection; format: ADME, organism-based, Macaca fascicularis; conditions: in vivo
[3] = Ratio of drug uptake in medulla to cerebellum in anesthetized cynomolgus monkey after 65 mins postinjection; format: ADME, organism-based, Macaca fascicularis; conditions: in vivo
[4] = Ratio of drug uptake in medulla to cerebellum in anesthetized cynomolgus monkey after 95 mins postinjection; format: ADME, organism-based, Macaca fascicularis; conditions: in vivo
[5] = Ratio of drug uptake in medulla to cerebellum in anesthetized cynomolgus monkey after 135 mins postinjection; format: ADME, organism-based, Macaca fascicularis; conditions: in vivo, 2.25 h
[6] = Ratio of drug uptake in medulla to cerebellum in anesthetized cynomolgus monkey after 165 mins postinjection; format: ADME, organism-based, Macaca fascicularis; conditions: in vivo, 2.75 h
[7] = Drug uptake in anesthetized cynomolgus monkey brain occipital lobe after 27.5 mins postinjection; format: ADME, organism-based, Macaca fascicularis; conditions: in vivo
[8] = Drug uptake in anesthetized cynomolgus monkey brain occipital lobe after 45 mins postinjection; format: ADME, organism-based, Macaca fascicularis; conditions: in vivo, 0.75 h
[9] = Drug uptake in anesthetized cynomolgus monkey brain occipital lobe after 65 mins postinjection; format: ADME, organism-based, Macaca fascicularis; conditions: in vivo
[10] = Drug uptake in anesthetized cynomolgus monkey brain occipital lobe after 125 mins postinjection; format: ADME, organism-based, Macaca fascicularis; conditions: in vivo
[11] = Drug uptake in anesthetized cynomolgus monkey brain occipital lobe after 155 mins postinjection; format: ADME, organism-based, Macaca fascicularis; conditions: in vivo
[12] = Drug uptake in anesthetized cynomolgus monkey brain occipital lobe after 175 mins postinjection; format: ADME, organism-based, Macaca fascicularis; conditions: in vivo
[13] = Drug uptake in anesthetized cynomolgus monkey brain occipital lobe after 225 mins postinjection; format: ADME, organism-based, Macaca fascicularis; conditions: in vivo, 3.75 h
[14] = Drug uptake in anesthetized cynomolgus monkey brain frontal lobe after 4.5 mins postinjection; format: ADME, organism-based, Macaca fascicularis; conditions: in vivo, 0.075 h
[15] = Drug uptake in anesthetized cynomolgus monkey brain frontal lobe after 225 mins postinjection; format: ADME, organism-based, Macaca fascicularis; conditions: in vivo, 3.75 h
[16] = Ratio of drug uptake in midbrain to cerebellum in anesthetized cynomolgus monkey after 225 mins postinjection; format: ADME, organism-based, Macaca fascicularis; conditions: in vivo, 3.75 h
[17] = Ratio of drug uptake in occipital lobe to cerebellum in anesthetized cynomolgus monkey after 175 mins postinjection; format: ADME, organism-based, Macaca fascicularis; conditions: in vivo
[18] = test system: Putamen; experiment: Drug uptake in anesthetized cynomolgus monkey brain putamen after 235 mins postinjection; format: ADME, organism-based, Macaca fascicularis; conditions: in vivo
[19] = test system: Thalamus; experiment: Drug uptake in anesthetized cynomolgus monkey brain thalamus after 1.5 mins postinjection; format: ADME, organism-based, Macaca fascicularis; conditions: in vivo, 0.025 h
[20] = Ratio of drug uptake in frontal lobe to cerebellum in anesthetized cynomolgus monkey after 35 mins postinjection; format: ADME, organism-based, Macaca fascicularis; conditions: in vivo
[21] = Ratio of drug uptake in frontal lobe to cerebellum in anesthetized cynomolgus monkey after 145 mins postinjection; format: ADME, organism-based, Macaca fascicularis; conditions: in vivo
[22] = test system: Midbrain; experiment: Drug uptake in anesthetized cynomolgus monkey brain midbrain after 215 mins postinjection; format: ADME, organism-based, Macaca fascicularis; conditions: in vivo
[23] = test system: Pons; experiment: Drug uptake in anesthetized cynomolgus monkey brain pons after 1.5 mins postinjection; format: ADME, organism-based, Macaca fascicularis; conditions: in vivo, 0.025 h
[24] = test system: Pons; experiment: Drug uptake in anesthetized cynomolgus monkey brain pons after 18.5 mins postinjection; format: ADME, organism-based, Macaca fascicularis; conditions: in vivo
[25] = test system: Pons; experiment: Drug uptake in anesthetized cynomolgus monkey brain pons after 45 mins postinjection; format: ADME, organism-based, Macaca fascicularis; conditions: in vivo, 0.75 h
[26] = test system: Pons; experiment: Drug uptake in anesthetized cynomolgus monkey brain pons after 185 mins postinjection; format: ADME, organism-based, Macaca fascicularis; conditions: in vivo
[27] = Ratio of drug uptake in frontal lobe to cerebellum in anesthetized cynomolgus monkey after 235 mins postinjection; format: ADME, organism-based, Macaca fascicularis; conditions: in vivo
[28] = test system: Caudate; experiment: Drug uptake in anesthetized cynomolgus monkey brain caudate after 195 mins postinjection; format: ADME, organism-based, Macaca fascicularis, Caudate nucleus; conditions: in vivo, 3.25 h
[29] = Ratio of drug uptake in caudate to cerebellum in anesthetized cynomolgus monkey after 12.5 mins postinjection; format: ADME, organism-based, Macaca fascicularis; conditions: in vivo
[30] = Ratio of drug uptake in caudate to cerebellum in anesthetized cynomolgus monkey after 18.5 mins postinjection; format: ADME, organism-based, Macaca fascicularis; conditions: in vivo
[31] = Ratio of drug uptake in caudate to cerebellum in anesthetized cynomolgus monkey after 155 mins postinjection; format: ADME, organism-based, Macaca fascicularis; conditions: in vivo
[32] = test system: Pons; experiment: Drug uptake in anesthetized cynomolgus monkey brain pons after 115 mins postinjection; format: ADME, organism-based, Macaca fascicularis; conditions: in vivo
[33] = test system: Pons; experiment: Drug uptake in anesthetized cynomolgus monkey brain pons after 145 mins postinjection; format: ADME, organism-based, Macaca fascicularis; conditions: in vivo
[34] = test system: Medulla; experiment: Drug uptake in anesthetized cynomolgus monkey brain medulla after 3.5 mins postinjection; format: ADME, organism-based, Macaca fascicularis; conditions: in vivo
[35] = test system: Medulla; experiment: Drug uptake in anesthetized cynomolgus monkey brain medulla after 9.5 mins postinjection; format: ADME, organism-based, Macaca fascicularis; conditions: in vivo
[36] = test system: Medulla; experiment: Drug uptake in anesthetized cynomolgus monkey brain medulla after 95 mins postinjection; format: ADME, organism-based, Macaca fascicularis; conditions: in vivo
[37] = test system: Medulla; experiment: Drug uptake in anesthetized cynomolgus monkey brain medulla after 125 mins postinjection; format: ADME, organism-based, Macaca fascicularis; conditions: in vivo
[38] = Ratio of drug uptake in putamen to cerebellum in anesthetized cynomolgus monkey after 165 mins postinjection; format: ADME, organism-based, Macaca fascicularis; conditions: in vivo, 2.75 h
[39] = Drug uptake in anesthetized cynomolgus monkey brain cerebellum after 4.5 mins postinjection; format: ADME, organism-based, Macaca fascicularis; conditions: in vivo, 0.075 h
[40] = Drug uptake in anesthetized cynomolgus monkey brain cerebellum after 12.5 mins postinjection; format: ADME, organism-based, Macaca fascicularis; conditions: in vivo
[41] = Drug uptake in anesthetized cynomolgus monkey brain cerebellum after 95 mins postinjection; format: ADME, organism-based, Macaca fascicularis; conditions: in vivo
[42] = Drug uptake in anesthetized cynomolgus monkey brain cerebellum after 155 mins postinjection; format: ADME, organism-based, Macaca fascicularis; conditions: in vivo
[43] = Drug uptake in anesthetized cynomolgus monkey brain cerebellum after 215 mins postinjection; format: ADME, organism-based, Macaca fascicularis; conditions: in vivo
[44] = Drug uptake in anesthetized cynomolgus monkey brain occipital lobe after 0.5 mins postinjection; format: ADME, organism-based, Macaca fascicularis; conditions: in vivo
[45] = Ratio of drug uptake in thalamus to cerebellum in anesthetized cynomolgus monkey after 9.5 mins postinjection; format: ADME, organism-based, Macaca fascicularis; conditions: in vivo
[46] = Ratio of drug uptake in thalamus to cerebellum in anesthetized cynomolgus monkey after 27.5 mins postinjection; format: ADME, organism-based, Macaca fascicularis; conditions: in vivo
[47] = test system: Caudate; experiment: Drug uptake in anesthetized cynomolgus monkey brain caudate after 2.5 mins postinjection; format: ADME, organism-based, Macaca fascicularis, Caudate nucleus; conditions: in vivo
[48] = test system: Caudate; experiment: Drug uptake in anesthetized cynomolgus monkey brain caudate after 9.5 mins postinjection; format: ADME, organism-based, Macaca fascicularis, Caudate nucleus; conditions: in vivo
[49] = test system: Caudate; experiment: Drug uptake in anesthetized cynomolgus monkey brain caudate after 55 mins postinjection; format: ADME, organism-based, Macaca fascicularis, Caudate nucleus; conditions: in vivo
[50] = test system: Putamen; experiment: Drug uptake in anesthetized cynomolgus monkey brain putamen after 0.5 mins postinjection; format: ADME, organism-based, Macaca fascicularis; conditions: in vivo
[51] = test system: Putamen; experiment: Drug uptake in anesthetized cynomolgus monkey brain putamen after 3.5 mins postinjection; format: ADME, organism-based, Macaca fascicularis; conditions: in vivo
[52] = Ratio of drug uptake in occipital lobe to cerebellum in anesthetized cynomolgus monkey after 12.5 mins postinjection; format: ADME, organism-based, Macaca fascicularis; conditions: in vivo
[53] = test system: Thalamus; experiment: Drug uptake in anesthetized cynomolgus monkey brain thalamus after 3.5 mins postinjection; format: ADME, organism-based, Macaca fascicularis; design: unit not given here; conditions: in vivo
[54] = test system: Thalamus; experiment: Drug uptake in anesthetized cynomolgus monkey brain thalamus after 6.5 mins postinjection; format: ADME, organism-based, Macaca fascicularis; design: unit not given here; conditions: in vivo
[55] = test system: Thalamus; experiment: Drug uptake in anesthetized cynomolgus monkey brain thalamus after 45 mins postinjection; format: ADME, organism-based, Macaca fascicularis; design: unit not given here; conditions: in vivo, 0.75 h
[56] = test system: Putamen; experiment: Drug uptake in anesthetized cynomolgus monkey brain putamen after 15.5 mins postinjection; format: ADME, organism-based, Macaca fascicularis; design: unit not given here; conditions: in vivo
[57] = test system: Putamen; experiment: Drug uptake in anesthetized cynomolgus monkey brain putamen after 22.5 mins postinjection; format: ADME, organism-based, Macaca fascicularis; design: unit not given here; conditions: in vivo, 0.375 h
[58] = test system: Putamen; experiment: Drug uptake in anesthetized cynomolgus monkey brain putamen after 55 mins postinjection; format: ADME, organism-based, Macaca fascicularis; design: unit not given here; conditions: in vivo
[59] = test system: Putamen; experiment: Drug uptake in anesthetized cynomolgus monkey brain putamen after 85 mins postinjection; format: ADME, organism-based, Macaca fascicularis; design: unit not given here; conditions: in vivo
[60] = test system: Thalamus; experiment: Drug uptake in anesthetized cynomolgus monkey brain thalamus after 55 mins postinjection; format: ADME, organism-based, Macaca fascicularis; design: unit not given here; conditions: in vivo
[61] = test system: Thalamus; experiment: Drug uptake in anesthetized cynomolgus monkey brain thalamus after 65 mins postinjection; format: ADME, organism-based, Macaca fascicularis; design: unit not given here; conditions: in vivo
[62] = test system: Thalamus; experiment: Drug uptake in anesthetized cynomolgus monkey brain thalamus after 115 mins postinjection; format: ADME, organism-based, Macaca fascicularis; design: unit not given here; conditions: in vivo
[63] = test system: Midbrain; experiment: Drug uptake in anesthetized cynomolgus monkey brain midbrain after 4.5 mins postinjection; format: ADME, organism-based, Macaca fascicularis; design: unit not given here; conditions: in vivo, 0.075 h
[64] = test system: Midbrain; experiment: Drug uptake in anesthetized cynomolgus monkey brain midbrain after 55 mins postinjection; format: ADME, organism-based, Macaca fascicularis; design: unit not given here; conditions: in vivo
[65] = test system: Midbrain; experiment: Drug uptake in anesthetized cynomolgus monkey brain midbrain after 105 mins postinjection; format: ADME, organism-based, Macaca fascicularis; design: unit not given here; conditions: in vivo, 1.75 h
[66] = Ratio of drug uptake in midbrain to cerebellum in anesthetized cynomolgus monkey after 2.5 mins postinjection; format: ADME, organism-based, Macaca fascicularis; conditions: in vivo
[67] = Ratio of drug uptake in midbrain to cerebellum in anesthetized cynomolgus monkey after 95 mins postinjection; format: ADME, organism-based, Macaca fascicularis; conditions: in vivo

## O=C(OCC[18F])C1C2CCC(CC1c1cccc(/C=C\Br)c1)N2 (configuration not stated)
[1]
  Ratio: 2
[2]
  Ratio: 1.2
[3]
  Ratio: 1.4
[4]
  Ratio: 1.5
[5]
  Ratio: 1.7
[6]
  Ratio: 1.8
[7]
  Drug uptake: 3.28
[8]
  Drug uptake: 3.55
[9]
  Drug uptake: 3.45
[10]
  Drug uptake: 3.07
[11]
  Drug uptake: 2.67
[12]
  Drug uptake: 2.42
[13]
  Drug uptake: 1.95
[14]
  Drug uptake: 1.02
[15]
  Drug uptake: 1.88
[16]
  Ratio: 2.3
[17]
  Ratio: 1.2
[18]
  Drug uptake: 2.98
[19]
  Drug uptake: 0.08
[20]
  Ratio: 0.7
[21]
  Ratio: 1.1
[22]
  Drug uptake: 3.76
[23]
  Drug uptake: 0.09
[24]
  Drug uptake: 4.13
[25]
  Drug uptake: 4.45
[26]
  Drug uptake: 3.6
[27]
  Ratio: 1.2
[28]
  Drug uptake: 3.08
[29]
  Ratio: 0.8
[30]
  Ratio: 0.8
[31]
  Ratio: 1.6
[32]
  Drug uptake: 4.51
[33]
  Drug uptake: 4.16
[34]
  Drug uptake: 1.26
[35]
  Drug uptake: 3.76
[36]
  Drug uptake: 4.55
[37]
  Drug uptake: 4.14
[38]
  Ratio: 1.8
[39]
  Drug uptake: 1.76
[40]
  Drug uptake: 3.41
[41]
  Drug uptake: 3.05
[42]
  Drug uptake: 2.19
[43]
  Drug uptake: 1.78
[44]
  Drug uptake: 0.01
[45]
  Ratio: 0.9
[46]
  Ratio: 1
[47]
  Drug uptake: 0.36
[48]
  Drug uptake: 2.36
[49]
  Drug uptake: 4.1
[50]
  Drug uptake: 0.01
[51]
  Drug uptake: 1
[52]
  Ratio: 0.8
[53]
  Drug uptake: 0.67
[54]
  Drug uptake: 2.44
[55]
  Drug uptake: 4.15
[56]
  Drug uptake: 4.05
[57]
  Drug uptake: 4.33
[58]
  Drug uptake: 5.05
[59]
  Drug uptake: 4.94
[60]
  Drug uptake: 4.38
[61]
  Drug uptake: 4.51
[62]
  Drug uptake: 4.22
[63]
  Drug uptake: 1.76
[64]
  Drug uptake: 4.98
[65]
  Drug uptake: 4.87
[66]
  Ratio: 1.3
[67]
  Ratio: 1.6
